# Experiments:
# CDK6/cyclin D1 = target: T1, CDK6/cyclin D1 (Homo sapiens, UniProt Q00534); experiment: Enzyme activity assay CDK6/cyclin D1 (Lance Ultra); type: biochemical; conditions: 0.8 nM CDK6/cyclin D1, 250 μM ATP, 180 minutes
# T1 construct: purchased Life technology
# Experimental: CDK4/cyclin D1, CDK6/cyclin D1 (Life technology). ULight labeled polypeptide substrates ULight-4E-BP1 and ULight-MBP (PerkinElmer). Europium labeled anti-myelin basic protein antibody and europium labeled rabbit-derived antibody (PerkinElmer). Envision Multi-label Analyzer (PerkinElmer) for signal detection.
# They were respectively dissolved in an enzyme buffer solution comprising: 50 mM hydroxyethylpiperazine ethanesulfuric acid solution at pH 7.5, 1 mM ethylenediaminetetraacetic acid, 10 mM magnesium chloride, 0.01% Brij-35, 2 mM dithiothreitol. After the reaction was started, the OptiPlate 384-well plate was sealed with a top heat seal film TopSeal-A and incubated at room temperature for 180 minutes.
# The termination buffer solution of the enzymatic reaction was prepared, and EDTA was dissolved in a 1-fold diluted assay buffer solution. The reaction was terminated and incubated at room temperature for 5 minutes. 5 μL of the assay mixed solution (prepared with europium labeled anti-myelin basic protein antibody and europium labeled rabbit-derived antibody, respectively) was added to the reactions of CDK4/cyclin D1 and CDK6/cyclin D1, respectively, and incubated at room temperature for 60 minutes. The reaction signal was detected by Envision according to the time-resolved fluorescence resonance energy transfer theory.
# [1] = Metabolic stability in human liver microsomes; type: in vitro ADME; conditions: 0.5 mg/mL protein, read-out: Human T1/2
# Experimental: (§1) This assay is used to test the metabolic stability of tested substances in rats, mice and human liver microsomes.
# (§2) 1) The tested compound with concentration of 1 μM was co-incubated with liver microsomes with a protein concentration of 0.5 mg/mL under a reducing coenzyme II regeneration system in a 37° C. water bath.
# (§3) 2) The positive controls include: testosterone (3A4 substrate), propafenene (2D6 substrate) and diclofenac (2C9 substrate). The incubation condition of the positive controls was consistent with that of the compound.
# (§4) 3) The reaction time points were: 0, 5, 10, 20, 30 and 60 minutes, and the reaction is terminated at the corresponding time point using a termination solution containing an internal standard. The compounds were also incubated with microsomes for 60 minutes without a reducing coenzyme II regeneration system and served as a negative control.
# (§5) 4) Each time point was a single point (n=1).
# (§6) 5) The sample was determined by LC/MS/MS, and the compound concentration was shown as the ratio of the peak area of the compound to the peak area of the internal standard (non-standard).
# (§7) 6) In the project report summary, the half-life and the clearance rate would be calculated.
# Caco-2 cells = experiment: Two-way permeability evaluation assay of Caco-2 cells; conditions: Caco-2
# Experimental: Assay concentration: 2 μM (DMSO≤1%);
# (§8) Direction: two-way transport, including two directions: A→B (intracellular→extracellular) and B→A (extracellular→intracellular);
# (§9) Incubation time: single time point, 2 hours;
# (§10) transport buffer solution: HBSS, pH 7.4;
# Incubation conditions: 37° C., 5% CO2.
# (§11) After the incubation, the sample solutions in the dosing wells and the receiving wells were immediately mixed with the cold acetonitrile solution containing the internal standard. The concentration of the tested compounds in all samples (including the initial dosing solution, the supernatant of the dosing wells, and the receiving solution) was analyzed by the LC/MS/MS method. The apparent permeability coefficient, the efflux ratio of and other parameters were calculated.
# [2] = as above; conditions: human, Caco-2, pH 7.4
# Experimental: Assay concentration: 2 μM (DMSO≤1%);
# as §8, §9, §10
# Incubation conditions: 37° C., 5% CO2.
# as §11
# [3] = Thermodynamic solubility test (shake-flask, HPLC); type: physicochemical; conditions: phosphate buffer, aqueous buffer, thermodynamic from solid; pH = 7.4, Table 3-2; read-out: Thermodynamic solubility
# Experimental: The thermodynamic solubility of the compounds was determined by the shake-flask method and HPLC. The solubility of the compounds is an important property that affects drug screening of compounds and the absorption of compounds in animals and humans. A saturated solution of the compound was first given and quantitatively tested by HPLC to obtain the solubility of the compound.
# 50 mM phosphate buffer solution, pH 7.4.
# Not less than 2 mg of the sample powder was weighed into a vial of Whatman miniuniprep. If test of the thermodynamic solubility of a sample in multiple buffer solutions is required, an individual vial is required for each test.
# 450 μL of the buffer solution (pH 7.4) was added to each Whatman miniuniprep vial.
# After the addition of the buffer solution, the Whatman miniuniprep cap with a filter was mounted and pressed above the liquid level so that the filter could contact with the buffer solution during shaking.
# And the observation of the solution was recorded.
# It was shaked at 550 RPM for 24 hours at room temperature (about 22 to 25° C.).
# The Whatman Miniunipreps filter cap was pressed to the bottom to give the filtrate of the sample solubility solution. All sample vials should be filtered before and after insoluble substances and their leakage.
# The buffer was diluted 50 folds to give a sample diluent.
# Three UV standards from low to high concentration were injected into HPLC, followed by the injection of the dilutions and supernatants of the tested compounds. The tested sample was injected twice.
# NCI-H358 cells = experiment: Cell viability assay NCI-H358 (CellTiter-Glo); type: cell-based; conditions: Homo sapiens, 168 h; NCI-H358, incubated for 7 days
# Experimental: The NCI-H358 cell line is from the cell bank of the Department of Biology of WuXi Apptec Co. Ltd. Envision Multi-Label Analyzer (PerkinElmer).
# 1) 100 μL of phosphate buffer solution was added to the peripheral wells of the 384-well plate and 40 μL of NCI-H358 cell suspension was added to the other wells containing 250 NCI-H358 cells. The cell plate was then placed in a carbon dioxide incubator and incubated overnight.
# 2) A 3-fold gradient dilution was subjected to the tested compounds using Echo. Each compound was diluted by 10 concentration gradients (diluted from 25 μM to 1.27 nM), 100 nL of which was added to the corresponding wells of the cell plate. The cell plate was then placed in a carbon dioxide incubator and incubated for 7 days.
# 3) 20 μL of Promega CellTiter-Glo reagent was added to each well of the cell plate, and shaken for 10 minutes away from light at room temperature to stabilize the luminescence signal. Readings were performed using a PerkinElmer Envision Multi-label Analyzer.
# Table 1 provides the inhibitory activity of the compounds of the present invention against the proliferation of H358 cells.
# [4] = Metabolic stability in rat liver microsomes; type: in vitro ADME; conditions: 0.5 mg/mL protein, read-out: Rats T1/2
# Experimental: as §1, §2, §3, §4, §5, §6, §7
# T1 sequence (Q00534 whole entry): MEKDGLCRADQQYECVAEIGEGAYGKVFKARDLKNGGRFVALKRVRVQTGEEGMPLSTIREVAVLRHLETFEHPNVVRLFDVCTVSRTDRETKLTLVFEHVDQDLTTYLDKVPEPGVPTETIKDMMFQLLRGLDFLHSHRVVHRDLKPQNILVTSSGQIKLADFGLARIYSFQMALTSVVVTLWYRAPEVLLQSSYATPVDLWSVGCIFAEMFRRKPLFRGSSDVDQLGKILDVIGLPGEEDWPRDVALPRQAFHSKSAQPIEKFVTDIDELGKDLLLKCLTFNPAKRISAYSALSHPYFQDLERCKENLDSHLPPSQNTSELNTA
# T1 sequence (P24385 whole entry partner): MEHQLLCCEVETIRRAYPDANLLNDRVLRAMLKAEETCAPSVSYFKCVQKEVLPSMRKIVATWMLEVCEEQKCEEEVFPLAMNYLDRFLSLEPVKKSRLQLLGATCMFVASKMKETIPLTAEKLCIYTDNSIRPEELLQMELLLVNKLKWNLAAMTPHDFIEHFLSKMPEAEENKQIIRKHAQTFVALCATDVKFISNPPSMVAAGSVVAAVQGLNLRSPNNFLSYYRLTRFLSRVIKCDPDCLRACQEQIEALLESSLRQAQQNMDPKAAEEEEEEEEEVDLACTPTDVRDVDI
smiles,measurement,setting,value
CC(=O)c1c(C)c2cnc(Nc3cnc(N4CCN(CCN(C)C)CC4)cn3)cc2n(C2CCCC2)c1=O [Example 34],IC50,CDK6/cyclin D1,3.65 nM
same,half-life at 1 μM,[1],43.1 min
same,Category Efflux transporter substrate,Caco-2 cells,Highly
same,Category Permeability,Caco-2 cells,Low
same,"Papp A→B at 2 h, 2 μM",[2],1.15 ×10⁻⁶ cm/s
same,"Papp B→A at 2 h, 2 μM",[2],16 ×10⁻⁶ cm/s
same,"efflux ratio at 2 h, 2 μM",[2],14
same,solubility thermodynamic at 24 h,[3],6.42 mM
same,IC50,NCI-H358 cells,179 nM
same,half-life at 1 μM,[4],> 145 min

# Reference: patent US10676474B2, “1,6-naphthyridine derivatives as CDK4/6 inhibitor” (CSTONE PHARMACEUTICALS, priority 2016, dated 2020)
